In the experiment the target is Gag-Pol polyprotein (Human immunodeficiency virus type 1 group M subtype B (isolate HXB2), UniProt P04585). Nature of the experiment: Microtiter Plate Assay for Strand Transfer. The note with it: pH 7.8; 37 °C. How it is done: The microtiter plate assay for stand transfer was performed with an immobilized donor substrate and a target substrate biotinylated at the 3-prime end of each DNA strand. Integrase was first assembled with immobilized LTR oligonucleotides for 30 min. Inhibitors were added after assembly and washings. For the strand transfer reaction, it was initiated with the addition of the biotinylated target substrate. Strand transfer reaction mixtures were incubated for additional 30 min, and the strand transfer products were detected by using alkaline phosphatase-conjugated avidin (Boehringer Mannheim, Indianapolis, Ind.).

pIC50: −log10 of the molar value.

Usually pIC50 stands for the IC50 on a negative log10 scale, so that one unit is a factor of ten.

`CC(c1nc(C(=O)NCc2ccc(F)cc2)c(O)c(=O)[nH]1)N(C)C` (stereo unspecified) [JMC496646 Compound 11] had a negative-log IC50 (pIC50) of 7.00.

(Values after BindingDB's records for doi:10.1021/jm701164t (Irbm-Mrl, 2008).)
